In brackets after ≈: the same amount, converted by molar mass. Activity calls are given as the source filed them.

One assay concerns Enterococcus faecium. Briefly: Antibacterial activity against Vancomycin-resistant Enterococcus faecium ATCC 51559 after 24 hrs. It is filed as functional. The note with it: ATCC 51559, 24 h.
In assay [1] the test system is Staphylococcus aureus. In words: Antibacterial activity against Staphylococcus aureus KCTC 1621 assessed as cell membrane disruption at 2 times MIC within 4 mins by Sytox Green dye based fluorescence spectrophotometer assay. It is filed as functional, organism-based.
Assay [2] concerns Staphylococcus aureus. In words: Antibacterial activity against Staphylococcus aureus KCTC 1621 assessed as cytoplasmic membrane depolarization at 2 times MIC by disC3-5 dye based fluorescence assay. Type of assay: functional, organism-based.

Turning to `CC[C@H](C)[C@H](NC(=O)CN)C(=O)NCC(=O)N[C@@H](C)C(=O)N[C@H](C(=O)N[C@@H](CC(C)C)C(=O)N[C@@H](CCCCN)C(=O)N[C@H](C(=O)N[C@@H](CC(C)C)C(=O)N[C@H](C(=O)N[C@H](C(=O)NCC(=O)N[C@@H](CC(C)C)C(=O)N1CCC[C@H]1C(=O)N[C@@H](C)C(=O)N[C@@H](CC(C)C)C(=O)N[C@H](C(=O)N[C@@H](CO)C(=O)N[C@@H](Cc1c[nH]c2ccccc12)C(=O)N[C@H](C(=O)N[C@@H](CCCCN)C(=O)N[C@@H](CCCNC(=N)N)C(=O)N[C@@H](CCCCN)C(=O)N[C@@H](CCCNC(=N)N)C(=O)N[C@@H](CCC(N)=O)C(=O)N[C@@H](CCC(N)=O)C(N)=O)[C@@H](C)CC)[C@@H](C)CC)[C@@H](C)O)[C@@H](C)O)C(C)C)C(C)C` [MELITTIN], in the assay with Enterococcus faecium, the MIC worked out at 16 µM (≈ 45.5 µg/mL). Moreover, the result in the assay on Staphylococcus aureus [1] and in the assay on Staphylococcus aureus [2] was Active.

The MIC is the smallest concentration in the dilution series that meets the test's criterion for growth inhibition.
